The values that follow come from ChEMBL document CHEMBL3045957, “Synthesis and antimicrobial activity of some new 3[5-(4-substituted) phenyl-1,3,4-oxadiazole-2yl]-2- styrylquinazoline-4(3H)-ones” (2008).

In brackets after ≈: the same amount, converted by molar mass. Activity calls are given as the source filed them. The rule behind the calls is not given here.

Holding throughout (type): functional
Experiment [1] relates to Fusarium oxysporum. Description: Antifungal activity against Fusarium oxysporum by liquid dilution technique.
The test system of experiment [2] is Aspergillus niger. Put plainly: Antifungal activity against Aspergillus niger MTCC 1344 by liquid dilution technique.
Experiment [3] deals with Escherichia coli. Description: Antibacterial activity against Escherichia coli MTCC 40 by liquid dilution technique.
For experiment [4], the system named is Pseudomonas aeruginosa. Put plainly: Antibacterial activity against Pseudomonas aeruginosa MTCC 424 by liquid dilution technique.
The test system of experiment [5] is Bacillus subtilis. Description: Antibacterial activity against Bacillus subtilis MTCC 619 by liquid dilution technique.
Experiment [6] has as its system Staphylococcus aureus. Description: Antibacterial activity against Staphylococcus aureus MTCC 96 by liquid dilution technique.

For `COc1ccc(-c2nnc(-n3c(/C=C/c4ccccc4)nc4ccccc4c3=O)o2)cc1`, the MIC result in experiment [1], in experiment [2], in experiment [3], in experiment [4], in experiment [5] and in experiment [6] was “inactive” each time.

As to `Cc1ccc(-c2nnc(-n3c(/C=C/c4ccc(Cl)cc4)nc4ccccc4c3=O)o2)cc1`, the MIC result in experiment [1], in experiment [2], in experiment [3], in experiment [4], in experiment [5] and in experiment [6] was “inactive” in each case.

For `CCn1cc(C(=O)O)c(=O)c2cc(F)c(N3CCNCC3)cc21` [NORFLOXACIN], the MIC (as a rule, the least concentration at which growth counts as inhibited) amounted to 4 mg/L (≈ 12.5 µM) in experiment [3], 8 mg/L (≈ 25.1 µM) in experiment [4], 5 mg/L (≈ 15.7 µM) in experiment [5] and 6 mg/L (≈ 18.8 µM) in experiment [6].

Take `Cc1ccc(/C=C/c2nc3ccccc3c(=O)n2-c2nnc(-c3ccc(C)cc3)o2)cc1`: the MIC entry in experiment [1], in experiment [2], in experiment [3], in experiment [4], in experiment [5] and in experiment [6] was “inactive” throughout.

On to `COc1ccc(-c2nnc(-n3c(C)nc4ccccc4c3=O)o2)cc1`, for which the MIC in experiment [1] came out at 175 mg/L (≈ 523 µM); in experiment [2], 165 mg/L (≈ 494 µM); in experiment [3] it was 80 mg/L (≈ 239 µM); in experiment [4], 100 mg/L (≈ 299 µM); in experiment [5] it was 85 mg/L (≈ 254 µM); in experiment [6], 90 mg/L (≈ 269 µM).

As for `COc1ccc(-c2nnc(-n3c(/C=C/c4ccc(C)cc4)nc4ccccc4c3=O)o2)cc1`, the MIC entry in experiment [1], in experiment [2], in experiment [3], in experiment [4], in experiment [5] and in experiment [6] was “inactive” in each case.

With `O=c1c2ccccc2nc(/C=C/c2ccc(Cl)cc2)n1-c1nnc(-c2ccccc2)o1`, the MIC result in experiment [1], in experiment [2], in experiment [3], in experiment [4], in experiment [5] and in experiment [6] was “inactive” in each case.

In the case of `Clc1ccccc1C(c1ccccc1)(c1ccccc1)n1ccnc1` [CLOTRIMAZOLE], the MIC in experiment [1] was determined as 8 mg/L (≈ 23.2 µM); in experiment [2], 6 mg/L (≈ 17.4 µM).

On to `Cc1nc2ccccc2c(=O)n1-c1nnc(-c2ccc(Cl)cc2)o1`, for which the MIC in experiment [1] was determined as 184 mg/L (≈ 543 µM); in experiment [2], 172 mg/L (≈ 508 µM); in experiment [3] it was 82 mg/L (≈ 242 µM); in experiment [4], 98 mg/L (≈ 289 µM); in experiment [5] it was 84 mg/L (≈ 248 µM); in experiment [6] it was 89 mg/L (≈ 263 µM).

As to `CN(C)c1ccc(-c2nnc(-n3c(/C=C/c4ccccc4)nc4ccccc4c3=O)o2)cc1`, the MIC in experiment [1] is 166 mg/L (≈ 381 µM); in experiment [2] it was 155 mg/L (≈ 356 µM); in experiment [3], 79 mg/L (≈ 181 µM); in experiment [4], 94 mg/L (≈ 216 µM); in experiment [5], 83 mg/L (≈ 191 µM); in experiment [6], 88 mg/L (≈ 202 µM).

Turning to `Cc1ccc(-c2nnc(-n3c(/C=C/c4ccccc4)nc4ccccc4c3=O)o2)cc1`, the MIC in experiment [1] was determined as 156 mg/L (≈ 384 µM); in experiment [2] it was 145 mg/L (≈ 357 µM); in experiment [3] it was 81 mg/L (≈ 199 µM); in experiment [4] it was 92 mg/L (≈ 226 µM); in experiment [5], 83 mg/L (≈ 204 µM); in experiment [6], 85 mg/L (≈ 209 µM).

In the case of `Cc1nc2ccccc2c(=O)n1-c1nnc(-c2ccc(N(C)C)cc2)o1`, the MIC worked out at 179 mg/L (≈ 515 µM) in experiment [1]; 170 mg/L (≈ 489 µM) in experiment [2]; 84 mg/L (≈ 242 µM) in experiment [3]; 95 mg/L (≈ 273 µM) in experiment [4]; 88 mg/L (≈ 253 µM) in experiment [5]; 88 mg/L (≈ 253 µM) in experiment [6].

For the compound `O=c1c2ccccc2nc(/C=C/c2ccc(Cl)cc2)n1-c1nnc(-c2ccc(Cl)cc2)o1`, the MIC result in experiment [1], in experiment [2], in experiment [3], in experiment [4], in experiment [5] and in experiment [6] was “inactive” each time.

As for `Cc1ccc(/C=C/c2nc3ccccc3c(=O)n2-c2nnc(-c3ccc(Cl)cc3)o2)cc1`, the MIC result in experiment [1], in experiment [2], in experiment [3], in experiment [4], in experiment [5] and in experiment [6] was “inactive” throughout.

`Cc1ccc(/C=C/c2nc3ccccc3c(=O)n2-c2nnc(-c3ccc(N(C)C)cc3)o2)cc1`: the MIC result in experiment [1], in experiment [2], in experiment [3], in experiment [4], in experiment [5] and in experiment [6] was “inactive” in each case.

On to `O=c1c2ccccc2nc(/C=C/c2ccccc2)n1-c1nnc(-c2ccc(Cl)cc2)o1`, for which the MIC was 141 mg/L (≈ 330 µM) in experiment [1]; 130 mg/L (≈ 305 µM) in experiment [2]; 70 mg/L (≈ 164 µM) in experiment [3]; 86 mg/L (≈ 201 µM) in experiment [4]; 75 mg/L (≈ 176 µM) in experiment [5]; 79 mg/L (≈ 185 µM) in experiment [6].

Regarding `Cc1nc2ccccc2c(=O)n1-c1nnc(-c2ccccc2)o1`, the MIC in experiment [1] was 192 mg/L (≈ 631 µM); in experiment [2] it was 185 mg/L (≈ 608 µM); in experiment [3], 120 mg/L (≈ 394 µM); in experiment [4], 135 mg/L (≈ 444 µM); in experiment [5] it was 127 mg/L (≈ 417 µM); in experiment [6], 130 mg/L (≈ 427 µM).

`O=c1c2ccccc2nc(/C=C/c2ccccc2)n1-c1nnc(-c2ccccc2)o1`: the minimum inhibitory concentration (MIC) amounted to 152 mg/L (≈ 387 µM) in experiment [1]; 143 mg/L (≈ 364 µM) in experiment [2]; 76 mg/L (≈ 194 µM) in experiment [3]; 90 mg/L (≈ 229 µM) in experiment [4]; 80 mg/L (≈ 204 µM) in experiment [5]; 82 mg/L (≈ 209 µM) in experiment [6].

As to `COc1ccc(-c2nnc(-n3c(/C=C/c4ccc(Cl)cc4)nc4ccccc4c3=O)o2)cc1`, the MIC result in experiment [1], in experiment [2], in experiment [3], in experiment [4], in experiment [5] and in experiment [6] was “inactive” in each case.

On to `Cc1ccc(-c2nnc(-n3c(C)nc4ccccc4c3=O)o2)cc1`, for which the MIC in experiment [1] came out at 180 mg/L (≈ 565 µM); in experiment [2], 165 mg/L (≈ 518 µM); in experiment [3], 115 mg/L (≈ 361 µM); in experiment [4], 138 mg/L (≈ 434 µM); in experiment [5], 122 mg/L (≈ 383 µM); in experiment [6], 127 mg/L (≈ 399 µM).

`Cc1ccc(/C=C/c2nc3ccccc3c(=O)n2-c2nnc(-c3ccccc3)o2)cc1`: the MIC entry in experiment [1], in experiment [2], in experiment [3], in experiment [4], in experiment [5] and in experiment [6] was “inactive” throughout.

As to `CN(C)c1ccc(-c2nnc(-n3c(/C=C/c4ccc(Cl)cc4)nc4ccccc4c3=O)o2)cc1`, the MIC entry in experiment [1], in experiment [2], in experiment [3], in experiment [4], in experiment [5] and in experiment [6] was “inactive” each time.
